Test: Human HepG2 cell viability assay in 384 well format
Type: toxicity, cell-based
Parameters: dose 125 nL, time 70.5 hour; cytotoxicity at 70.5 h: concentration not given beside the values
Conditions: HepG2 cells, read-out: Inhibition

| SMILES | cytotoxicity at 70.5 h |
| --- | --- |
| Cc1ccc(N2Cc3c(CN(C)C)nn(C)c3C2)nn1 | -14.2% |
| OCCOCc1n[nH]c2c1CN(Cc1cccs1)C2 | -2.23% |
| O=C(NCC1CC[C@@]2(CNCCOC2)O1)c1cccnc1 (some centres not stated) | -2.12% |
| CCS(=O)(=O)N1CCc2ncnc(C)c2CC1 | -1.43% |
| CNC(=O)[C@@H]1COC[C@H]2CN(C(=O)COc3ccccc3)C[C@H]21 | -1.14% |
| CN(C)C(=O)CN1CCC2(C1)CN(CC1CCOCC1)C2 | -2.25% |
| Cc1cccc(CN2C[C@@H]3OCCN(S(=O)(=O)N(C)C)[C@@H]3C2)n1 | -6.13% |
| O=C(c1nc2c(s1)CCCN2C(=O)C1CC1)N1CCOCC1 | -6.48% |
| c1ccc(-c2nnn3c2COC(CNCc2ccccn2)C3)cc1 (configuration not stated) | -5.4% |
| CNC(=O)[C@@H]1COC[C@H]2CN(C(=O)c3ccc(C)c(F)c3)C[C@H]21 | -6.14% |
| CNC(=O)[C@@H]1C[C@H]2CN(C(=O)c3ccccn3)C[C@H]2N1C(C)C | 15.1% |
| O=c1cc(Cn2cncn2)nc2n1CCCN(Cc1ccsc1)C2 | -11.7% |
| Cc1ccc(CN2CCCn3c(nc(Cn4ccnc4)cc3=O)C2)o1 | -6.14% |
| O=C(N1CCOCC1)[C@@]12CCO[C@@H]1CCN(CC1CCC1)C2 | -20.9% |
| O=C(N1CCOCC1)[C@@]12CCO[C@@H]1CCN(C1CCCC1)C2 | -15.6% |
| O=C([C@@H]1CCO[C@@H]2CCN(CC3CC3)C[C@H]21)N1CCCCO1 | 42.7% |
| Cc1cccc(N2CCCC3(C2)CN(c2nncs2)CCO3)c1 (configuration not stated) | 16.1% |
| Cc1cc(C(=O)N2CCn3cnc(COCC4CC4)c3C2)no1 | 0.0472% |
| O=C(c1cscn1)N1CCn2cnc(COCC3CC3)c2C1 | -4.79% |
| Fc1cccc(N2CCOC3(CCCN(c4nncs4)C3)C2)c1 (configuration not stated) | -2.67% |
| Cn1cc(C2CC3(CCN(C(=O)c4ccsc4)CC3)NC2=O)cn1 (configuration not stated) | -0.304% |
| Cc1ncsc1CN1CC[C@H]2OCC[C@@]2(C(=O)N2CCCO2)C1 | -2.27% |

| SMILES | cytotoxicity at 70.5 h |
| --- | --- |
| Cn1cccc1C(=O)N1C[C@@H]2COC[C@]2(CNS(C)(=O)=O)C1 | -1.05% |
| CN(Cc1cn2c(n1)CN(C(=O)N(C)C)CC2)Cc1ccco1 | -5.21% |
| CN(C)C(=O)N1CC[C@@H](O)[C@@H]1Cc1cnn(C)c1 | -1.6% |
| Cc1occc1C(=O)N1CCn2cnc(COCC3CC3)c2C1 | -0.838% |
| O=C([C@@H]1C[C@@H]2CCN(Cc3ccco3)C[C@H]2O1)N1CCCO1 | -0.42% |
| Cc1ccoc1C(=O)N1CC(C(=O)N2CCOCC2)C2(CCOCC2)C1 (configuration not stated) | 15.4% |
| CCO[C@H]1CO[C@@]2(CCCN(C(=O)c3ccc(OC)c(F)c3)C2)C1 | 2.45% |
| CCC1=N[C@@]2(CC[C@@H]3CN(S(=O)(=O)CC)C[C@@H]32)C(=O)N1CC | -2.37% |
| CCC1=N[C@@]2(CC[C@@H]3CN(S(C)(=O)=O)C[C@@H]32)C(=O)N1CC(C)C | -1.52% |
| CCOC(=O)CN1CCC2(CC1)CC(NC(=O)c1ccccn1)CO2 (configuration not stated) | -1.03% |
| Cc1ccsc1C(=O)N1CC(C(=O)N2CCCC2)C2(CCOCC2)C1 (configuration not stated) | 0.96% |
| CNC(=O)[C@@]12CCCN(c3ncccn3)[C@@H]1CN(c1ncc(C)cn1)C2 | -4.37% |
| CN(C)Cc1nnc2n1CCCN(C(=O)c1c[nH]cn1)C2 | -0.569% |
| CNC(=O)[C@@]12CCCN(c3ncccn3)[C@@H]1CN(c1ncc(F)cn1)C2 | -0.144% |
| O=C(COc1ccccc1)N1CCC[C@]2(C[C@@H](OCC3CC3)CO2)C1 | 0.205% |
| CS(=O)(=O)CC(=O)NCC1OCCc2cn(CC3CC3)nc21 (configuration not stated) | -1.93% |
| Cc1csc([C@H]2C[C@@H]3CCN(C(=O)c4cnccn4)C[C@H]3O2)n1 | -3.11% |
| CO[C@@H]1CO[C@@]2(CCN(C(=O)COc3ccccc3C)C2)C1 | -2.61% |
| CCOCC1CN(C(=O)COc2ccccc2)Cc2cn(C)nc21 (configuration not stated) | -4% |
| Cc1csc([C@@H]2C[C@@H]3CCN(C(=O)c4cccn4C)C[C@H]3O2)n1 | 9.1% |
| COCC1CN(Cc2cccnc2OC)Cc2cnn(C)c21 (configuration not stated) | 6.07% |
| O=C1NCC[C@]12CN(Cc1ccco1)C[C@H]2c1ccccc1 | 1.63% |

| SMILES | cytotoxicity at 70.5 h |
| --- | --- |
| CC(C)NC(=O)c1cc2c(nc1N(C)C)CCN(S(=O)(=O)C1CC1)CC2 | 7.69% |
| O=C(CCn1cc(Cl)cn1)Nc1nncs1 | 15.8% |
| Cc1c(Cl)c(C(=O)NN2CCOCC2)nn1C | -8.4% |
| Cc1cc(C(F)(F)F)nn1C(C)C(=O)NN1CCN(C)CC1 (configuration not stated) | 18.4% |
| Cc1nn(CC(=O)N2CCN(Cc3cnn(C)c3C)CC2)cc1Cl | -9.22% |
| Cc1cc(C(=O)N(C)Cc2cnn(C)c2C)n(C)n1 | 14% |
| Cc1c(Cl)c(C(F)(F)F)nn1C(C)C(=O)NC1CCN(C)CC1 (configuration not stated) | 7.5% |
| Cn1nccc1CNC(=O)C1CCCCC1 | -2.81% |
| COC(=O)C1=C(C)N=C2SCC(=O)N2C1c1cnn(C)c1C (configuration not stated) | -1.28% |
| NC(=O)c1ccn(COc2ccccc2Cl)n1 | -9.79% |
| Cc1cc(C(F)(F)F)nn1CC(C)C(=O)NC(C)C (configuration not stated) | 19.9% |
| O=C(NC1CC1)c1ccn(COc2c(Cl)cccc2Cl)n1 | -14.6% |
| CC(Cn1cc(Br)cn1)C(=O)Nc1ccc(C(N)=O)cc1 (configuration not stated) | 7.39% |
| CCOC(=O)N1CCN(C(=O)c2cc(-c3ccc(C)cc3)on2)CC1 | 5.24% |
| Cn1cc(S(=O)(=O)NCc2ccc(F)cc2)cn1 | -2.02% |
| CCS(=O)(=O)Nc1cnn(Cc2cccc(C)c2)c1 | -3.36% |
| CCn1ncc(S(=O)(=O)NC(C)c2cc(OC)ccc2OC)c1C (configuration not stated) | 20.2% |
| Cc1nn(CCCNC(=O)C2CCN(S(C)(=O)=O)CC2)cc1Cl | 36.7% |
| CC(C)CN1CC[C@@H]2[C@@H]1CCN2C(=O)N(C)C | -11.8% |
| CS(=O)(=O)N1C[C@H]2CCCN(Cc3cccs3)[C@H]2C1 | 6.54% |
| Cn1nc(Cn2ccnc2)c2c1CN(c1ncccn1)C2 | -4.86% |
| CN1CCN(C(=O)c2nc3c(s2)CCCN3C(=O)C2CC2)CC1 | -3.93% |

| SMILES | cytotoxicity at 70.5 h |
| --- | --- |
| CC(C)CN1CC[C@@H]2[C@@H]1CCN2C(=O)N1CCCC1 | -3.86% |
| Cc1nnn2c1COC(CNCc1ccccn1)C2 (configuration not stated) | -3.64% |
| CCCN1CCC2(CC1)COc1ccccc1S(=O)(=O)N(CC1CC1)C2 | -4.67% |
| CC(C)NC(=O)N1CCN(CC2CC2)CC2(CNC(=O)C2)C1 (configuration not stated) | -17.7% |
| O=C([C@@H]1CCO[C@@H]2CCN(Cc3ccc(F)cc3)C[C@H]21)N1CCCCO1 | -24.4% |
| O=C(N1CCOCC1)[C@@]12CCO[C@@H]1CCN(C1CCOCC1)C2 | -4.69% |
| O=C(N1CCOCC1)[C@@]12CCO[C@@H]1CCN(C1CCC1)C2 | 46% |
| O=C(N1CCOCC1)[C@@]12CCO[C@@H]1CCN(CC1CCCC1)C2 | 49.2% |
| Cc1cccc(CN2CCC3(CCCN(C(=O)c4ccoc4)C3)C2=O)n1 (configuration not stated) | -3.14% |
| Cc1ccc(C(=O)N2CCn3cnc(COCC4CC4)c3C2)cn1 | -5.4% |
| Cc1cccc(CN2CCC3(CCCN(C(=O)N(C)C)C3)C2=O)n1 (configuration not stated) | -3.06% |
| COc1ccc(S(=O)(=O)N2Cc3c(CN(C)C)nn(C)c3C2)cc1 | -3.13% |
| CN(Cc1cn2c(n1)CN(C(=O)c1ccc[nH]1)CC2)Cc1ccco1 | 0.342% |
| Cc1cccc(CN2CCC3(CCCN(C(=O)NC(C)C)C3)C2=O)n1 (configuration not stated) | -5.48% |
| Cc1ncsc1CN1CC[C@H]2OCC[C@@]2(C(=O)N2CCOCC2)C1 | -4.06% |
| CS(=O)(=O)N1CCOCC2(CN(Cc3nccs3)CCO2)C1 (configuration not stated) | 15.5% |
| Cc1ccc(CN2CC[C@H]3C[C@H](C(=O)N4CCCO4)O[C@@H]3C2)o1 | 1.31% |
| Cn1ccnc1CN1CCC2(CC1)CN(c1ccccc1)C(=O)CO2 | 4.73% |
| COCC1CN(C(=O)c2ccco2)Cc2cn(C)nc21 (configuration not stated) | 3.61% |
| CNC(=O)[C@H]1C[C@H]2OCC[C@H]2N(Cc2ccc(F)cc2)C1 | -4.52% |
| Cn1ccnc1CN1CCC2(CC1)CN(Cc1ccccc1)C(=O)CO2 | -5.92% |
| COCCN1C(=O)CCC12CCN(c1ncc(F)cn1)CC2 | -2.74% |

| SMILES | cytotoxicity at 70.5 h |
| --- | --- |
| CCCS(=O)(=O)N1C[C@@H](Oc2ccccn2)[C@H]2OCCC[C@H]21 | -1.57% |
| O=C(NC1COC2(CCN(Cc3cccs3)CC2)C1)c1ccccn1 (configuration not stated) | -2.35% |
| O=C1CCC2(CCN(c3ncc(F)cn3)CC2)N1Cc1ccncc1 | 7.51% |
| COCC1CN(C(=O)c2cccn2C)Cc2c1cnn2CC1CC1 (configuration not stated) | -1.46% |
| COCC1CC2(CCN(C(=O)c3cncc(C)c3)CC2)CO1 (configuration not stated) | 9.94% |
| O=C(c1ccccn1)N1CCCC2(CCN(c3ccsc3)C2=O)C1 (configuration not stated) | 12.8% |
| Cc1ccc(C(=O)N2CCC3(CCN(c4ccsc4)C3=O)C2)cn1 (configuration not stated) | 6.79% |
| CN(C)S(=O)(=O)N1CCC2(CC1)CC(Oc1ccccn1)CO2 (configuration not stated) | 0.296% |
| COCC1CC2(CCN(C(=O)c3cnc4ccccc4c3)CC2)CO1 (configuration not stated) | -0.655% |
| CNC(=O)CNC1CC2(CCN(c3ncccn3)CC2)c2ccccc21 (configuration not stated) | -9.1% |
| CNC(=O)[C@@H]1C[C@H]2CN(c3ncccn3)C[C@H]2N1C(C)C | -1.97% |
| CN(C)C(=O)CN1CCOCC2(CCN(CC3CCOCC3)CC2)C1 | -7.63% |
| COc1ncccc1CN1C[C@@H]2COC[C@]2(COCC(=O)N(C)C)C1 | -6.1% |
| Cc1ccc(C(=O)N2C[C@H]3CCC[C@@]3(COCc3ccncc3)C2)cn1 | -7.42% |
| CN1CC(=O)N(c2cccc(F)c2)CC12CCN(Cc1ccsc1)C2 (configuration not stated) | -5.22% |
| O=C(c1ccncc1)N1CCCC2(CCN(c3cccnc3)C2=O)C1 (configuration not stated) | 0.0433% |
| c1cc(CN2CCCC23CCCN(Cc2ccoc2)C3)ccn1 (configuration not stated) | -3.1% |
| Cc1cccc(CN2CCn3cc(Cn4cccn4)nc3C2)n1 | -12.9% |
| COc1ncccc1CN1C[C@@H]2COC[C@]2(COc2cccnc2)C1 | -13.7% |
